In patent US20240239788A1, “SMALL MOLECULE INHIBITORS OF KRAS G12D MUTANT” (Merck Sharp & Dohme LLC, priority 2021, published 2024):
Where a name gives a salt, the structure may show the parent alone.

Biological target: KRAS protein containing G12D mutation (Homo sapiens (Human), UniProt P01116, G12D)
Assay: SOS-catalyzed nucleotide exchange assay (GNE), TR-FRET
Type: biochemical
Settings: biotinylated KRAS G12D, SOS and GTP, 60-minute incubation
Description: Compounds are added to this complex and then after a 60-minute incubation time the mixture is treated with SOS and unlabeled GTP. Small molecule inhibitors stabilize the Bodipy-GDP complex whereas the untreated protein rapidly exchanges Bodipy-GDP for unlabeled GTP resulting in reduced TR-FRET signal.
This solution is referred to as biotinylated KRAS G12D stock solution.

Chain of KRAS protein containing G12D mutation (P01116 other isoform, or with tags, fused parts or gaps G12D (already in the parent)): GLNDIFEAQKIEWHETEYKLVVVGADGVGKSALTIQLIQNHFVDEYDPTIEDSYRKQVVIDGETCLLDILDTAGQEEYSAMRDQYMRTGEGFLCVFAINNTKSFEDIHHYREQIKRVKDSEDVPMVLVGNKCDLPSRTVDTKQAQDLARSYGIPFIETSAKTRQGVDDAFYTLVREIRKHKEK

| SMILES | IC50 [nM] |
| --- | --- |
| CN(C)C[C@@]1(COc2nc(N3C[C@H]4CC[C@@H](C3)N4)c3cc(F)c(-c4c(C(F)(F)F)c(Cl)cc5cnn(C)c45)c(F)c3n2)CC1(F)F (single isomer, unassigned) [201a] | 11100 |
| C#Cc1c(F)ccc2ccc(F)c(-c3c(F)cc4c(N5CC6CC[C@@](C)(C5)N6)nc(OC[C@@]56CCCN5C[C@H](F)C6)nc4c3F)c12 (single isomer, unassigned) [246a] | 41.3 |
| C#Cc1c(F)ccc2ccc(F)c(-c3c(F)cc4c(N5CC6CC[C@@](C)(C5)N6)nc(OC[C@@]56CCCN5C[C@H](F)C6)nc4c3F)c12 (single isomer, unassigned) [246b] | 165 |
| Cc1cc(N)nc(-c2c(Cl)cc3c(N4CC5CC(O)C(C4)N5)nc(OC[C@@]45CCCN4C[C@H](F)C5)nc3c2F)c1C(F)(F)F (single isomer, unassigned) [249a] | 351 |
| Cc1nc2[nH]nc(C)c2c(-c2c(F)cc3c(N4C[C@H]5CC[C@@H](C4)N5)nc(OC[C@@]45CCCN4C[C@H](F)C5)nc3c2F)c1C(F)(F)F (single isomer, unassigned) [250a] | 400 |
| C#Cc1c(F)ccc2cc(N)nc(-c3c(F)cc4c(N5C[C@H]6CC[C@@H](C5)N6)nc(OC[C@@]56CCCN5C[C@H](F)C6)nc4c3F)c12 (single isomer, unassigned) [252b] | 204 |
| CNc1cc(C)c(C(F)(F)F)c(-c2c(F)cc3c(N4CC5CCC(C4)N5)nc(OCC4(CN5CCOCC5)CC4)nc3c2F)n1 (single isomer, unassigned) [Ex. 137a] | 1610 |
| CNc1cc(C)c(C(F)(F)F)c(-c2c(F)cc3c(N4CC5CCC(C4)N5)nc(OCC4(CN5CCOCC5)CC4)nc3c2F)n1 (single isomer, unassigned) [Ex. 137b] | 4820 |
| Cc1nc(N)cc(-c2c(F)cc3c(N4C[C@H]5CC[C@@](C)(C4)N5)nc(OCC4(CN5CCOCC5)CC4)nc3c2F)c1C(F)(F)F (single isomer, unassigned) [Ex. 139a] | 1670 |
| Cc1nc(N)cc(-c2c(F)cc3c(N4C[C@H]5CC[C@@](C)(C4)N5)nc(OCC4(CN5CCOCC5)CC4)nc3c2F)c1C(F)(F)F (single isomer, unassigned) [Ex. 139b] | 287 |
| Cc1cc(N)c(F)c(-c2c(F)cc3c(N4CC5CCC(C4)N5)nc(OC[C@@]45CCCN4C[C@H](F)C5)nc3c2F)c1C(F)(F)F (single isomer, unassigned) [Ex. 146b] | 25.2 |
| Nc1cc(Cl)c(C(F)(F)F)c(-c2c(Cl)cc3c(N4CC5CCC(C4)N5)nc(OC[C@@]45CCCN4C[C@H](F)C5)nc3c2F)n1 (single isomer, unassigned) [Ex. 154b] | 381 |
| Nc1cc(-c2c(Cl)cc3c(N4CC5CCC(C4)N5)nc(OC[C@@]45CCCN4C[C@H](F)C5)nc3c2F)c(C(F)(F)F)c(Cl)n1 (single isomer, unassigned) [Ex. 155a] | 330 |
| Cc1nc(N)c(C#N)c(-c2c(F)cc3c(N4CC5CCC(C4)N5)nc(OC[C@@]45CCCN4C[C@H](F)C5)nc3c2F)c1C(F)(F)F (single isomer, unassigned) [Ex. 156a] | 14 |
| Cc1nc(N)c(C#N)c(-c2c(F)cc3c(N4CC5CCC(C4)N5)nc(OC[C@@]45CCCN4C[C@H](F)C5)nc3c2F)c1C(F)(F)F (single isomer, unassigned) [Ex. 156b] | 554 |
| Cc1cc(N)nc(-c2c(Cl)cc3c(N4CC5CCC(C4)N5)nc(OC[C@@]45CCCN4C[C@H](F)C5)nc3c2F)c1CC(F)(F)F (single isomer, unassigned) [Ex. 157a] | 113 |
| Cc1cc(N)nc(-c2c(Cl)cc3c(N4CC5CCC(C4)N5)nc(OC[C@@]45CCCN4C[C@H](F)C5)nc3c2F)c1CC(F)(F)F (single isomer, unassigned) [Ex. 157b] | 2940 |
| C#Cc1cccc2cc(O)cc(-c3c(F)cc4c(N5C[C@H]6CC[C@@](C)(C5)N6)nc(OC)nc4c3F)c12 (single isomer, unassigned) [Ex. 171b, TFA] | 3470 |
| C[C@]12CCC(CN(c3nc(OCC45CCCN4CC(C(F)F)C5)nc4c(F)c(-c5cc(O)cc6cccc(Cl)c56)c(F)cc34)C1)N2 (single isomer, unassigned) [Ex. 173-2b] | 2230 |
| C[C@@]12CC[C@H](CN(c3nc(OC[C@@]45CCCN4C[C@H](F)C5)nc4c(F)c(-c5cc(O)c(Cl)c6cccc(Cl)c56)c(F)cc34)C1)N2 (single isomer, unassigned) [Ex. 174a] | 3130 |

| SMILES | IC50 [nM] |
| --- | --- |
| C[C@@]12CC[C@H](CN(c3nc(OC[C@@]45CCCN4C[C@H](F)C5)nc4c(F)c(-c5cc(O)c(Cl)c6cccc(Cl)c56)c(F)cc34)C1)N2 (single isomer, unassigned) [Ex. 174b] | 1000 |
| C[C@]12CCC(CN(c3nc(OC[C@@H]4CC[C@H]5CC(F)(F)CCN45)nc4c(F)c(-c5cc(O)cc6cccc(Cl)c56)c(F)cc34)C1)N2 (single isomer, unassigned) [Ex. 175b] | 11100 |
| Cc1cccc2cc(O)cc(-c3c(F)cc4c(N5CC6CC[C@@](C)(C5)N6)nc(OC[C@@]56CCCN5C[C@H](F)C6)nc4c3F)c12 (single isomer, unassigned) [Ex. 179a] | 5.07 |
| Cc1cccc2cc(O)cc(-c3c(F)cc4c(N5CC6CC[C@@](C)(C5)N6)nc(OC[C@@]56CCCN5C[C@H](F)C6)nc4c3F)c12 (single isomer, unassigned) [Ex. 179b] | 727 |
| C[C@]12CCC(CN(c3nc(OC[C@@]45CCCN4C[C@H](F)C5)nc4c(F)c(-c5cc(O)cc6cccc(C(F)F)c56)c(F)cc34)C1)N2 (single isomer, unassigned) [Ex. 181a] | 3.97 |
| C[C@]12CCC(CN(c3nc(OC[C@@]45CCCN4C[C@H](F)C5)nc4c(F)c(-c5cc(O)cc6cccc(C(F)F)c56)c(F)cc34)C1)N2 (single isomer, unassigned) [Ex. 181b] | 141 |
| C[C@]12CCC(CN(c3nc(OC[C@@]45CCCN4C[C@H](F)C5)nc4c(F)c(-c5cc(Cl)cc6cccc(Cl)c56)c(F)cc34)C1)N2 (single isomer, unassigned) [Ex. 184] | 4720 |
| Nc1cc2cccc(Cl)c2c(-c2c(F)cc3c(N4CC5CCC(C4)N5)nc(OC[C@@]45CCCN4C[C@H](F)C5)nc3c2F)n1 (single isomer, unassigned) [Ex. 189b] | 11100 |
| Cc1cc(N)nc(-c2c(F)cc3c(N4CC5CC[C@@](C)(C4)N5)nc(OC[C@@]45CCCN4C[C@H](F)C5)nc3c2F)c1C(F)(F)F (single isomer, unassigned) [Ex. 200b] | 1130 |
| CC(O)(COc1nc(N2CC3CC[C@@](C)(C2)N3)c2cc(F)c(-c3cc(O)cc4cccc(Cl)c34)c(F)c2n1)CN1CC[C@@H](F)C1 (single isomer, unassigned) [Ex. 210] | 2150 |
| C#Cc1cccc2cccc(-c3c(F)cc4c(N5CC6CC[C@@](C)(C5)N6)nc(OC[C@@]56CCCN5C[C@H](F)C6)nc4c3F)c12 (single isomer, unassigned) [Ex. 211a] | 2080 |
| C[C@]12CCC(CN(c3nc(OC[C@]4(CNCC(F)F)CC4(F)F)nc4c(F)c(-c5cc(O)cc6cccc(Cl)c56)c(F)cc34)C1)N2 (single isomer, unassigned) [Ex. 221] | 1110 |
| Cc1cc2[nH]nc(C)c2c(-c2c(F)cc3c(N4CC5CCC(C4)N5)nc(OC[C@@]45CCCN4C[C@H](F)C5)nc3c2F)c1OC(F)F (single isomer, unassigned) [Ex. 233a] | 1070 |
| Cc1cc2[nH]nc(C)c2c(-c2c(F)cc3c(N4CC5CCC(C4)N5)nc(OC[C@@]45CCCN4C[C@H](F)C5)nc3c2F)c1OC(F)F (single isomer, unassigned) [Ex. 233b] | 6.11 |
| C[C@]12CC[C@H](CN(c3nc(OCC45CCCN4CCC(F)(F)C5)nc4c(F)c(-c5cc(O)cc6cccc(Cl)c56)c(F)cc34)C1)N2 (single isomer, unassigned) [Example 116a] | 2890 |
| Cc1cc2[nH]ncc2c(-c2c(F)cc3c(N4CC5CCC(C)(C4)N5)nc(OCC4(CN5CCOCC5)CC4)nc3c2F)c1OC(F)(F)F (stereo in doubt) [Ex. 125, 4-((1-(((6,8-difluoro-7-(6-methyl-5-(trifluoromethoxy)-1H-indazol-4-yl)-4-((1S,5R)-1-methyl-3,8-diazabicyclo[3.2.1]octan-3-yl)quinazolin-2-yl)oxy)methyl)cyclopropyl)methyl) morpholine] | 148 |
| Cc1cc2cnn(C)c2c(-c2c(F)cc3c(N4C[C@H]5CC[C@@H](C4)N5)nc(OC[C@@]45CCCN4C[C@H](F)C5)nc3c2F)c1C(F)(F)F [251a, 4-((1R,5S)-3,8-diazabicyclo[3.2.1]octan-3-yl)-7-(1,5-dimethyl-6-(trifluoromethyl)-1H-indazol-7-yl)-6,8-difluoro-2-(((2R, 7aS)-2-fluorotetrahydro-1H-pyrrolizin-7a(5H)-yl)methoxy)quinazoline] | 5.15 |
| Cc1cc2cn(C)nc2c(-c2c(F)cc3c(N4C[C@H]5CC[C@@H](C4)N5)nc(OC[C@@]45CCCN4C[C@H](F)C5)nc3c2F)c1C(F)(F)F [251b, 4-((1R,5)-3,8-diazabicyclo[3.2.1]octan-3-yl)-7-(2,5-dimethyl-6-(trifluoromethyl)-2H-indazol-7-yl)-68-difluoro-2-(((2R,7aS)-2-fluorotetrahydro-1H-pyrrolizin-7a(5H)-yl)methoxy)quinazoline] | 935 |
| C[C@]12CC[C@H](CN(c3nc(OC[C@@]45CCCN4C[C@H](F)C5)nc4c(F)c(-c5cccn6cccc56)c(F)cc34)C1)N2 [Ex. 130, 6,8-difluoro-2-(((2R,7aS)-2-fluorotetrahydro-1H-pyrrolizin-7a(5H)-yl)methoxy)-7-(indolizin-8-yl)-4-((1S,5R)-1-methyl-3,8-diazabicyclo[3.2.1]octan-3-yl)quinazoline, 2TFA] | 4190 |
| Cc1nc(N)cc(-c2c(Cl)cc3c(N4C[C@H]5CC[C@@](C)(C4)N5)nc(OCC4(CN5CCOCC5)CC4)nc3c2F)c1C(F)(F)F [Ex. 138, 4-(6-chloro-8-fluoro-4-((1S,5R)-1-methyl-3,8-diazabicyclo[3.2.1]octan-3-yl)-2-((1-(morpholinomethyl)cyclopropyl)methoxy)quinazolin-7-yl)-6-methyl-5-(trifluorometh-yl)pyridin-2-amine] | 361 |
